This is an account of results in ChEMBL document CHEMBL1208739, “Synthesis and SAR of azolopyrimidines as potent and selective dipeptidyl peptidase-4 (DPP4) inhibitors for type 2 diabetes” (Bioorg Med Chem Lett, 2010).

The structures appear in SMILES notation. A value given as a limit tells only on which side of the number the result lay.

The target in one data set is Dipeptidyl peptidase 9 (Homo sapiens, UniProt Q86TI2). Put plainly: Inhibition of human DPP89.
In the next data set the target is Dipeptidyl peptidase 8 (Homo sapiens, UniProt Q6V1X1). Kind of data set: Inhibition of human DPP8.
Chain of Dipeptidyl peptidase 8 (Q6V1X1 whole entry): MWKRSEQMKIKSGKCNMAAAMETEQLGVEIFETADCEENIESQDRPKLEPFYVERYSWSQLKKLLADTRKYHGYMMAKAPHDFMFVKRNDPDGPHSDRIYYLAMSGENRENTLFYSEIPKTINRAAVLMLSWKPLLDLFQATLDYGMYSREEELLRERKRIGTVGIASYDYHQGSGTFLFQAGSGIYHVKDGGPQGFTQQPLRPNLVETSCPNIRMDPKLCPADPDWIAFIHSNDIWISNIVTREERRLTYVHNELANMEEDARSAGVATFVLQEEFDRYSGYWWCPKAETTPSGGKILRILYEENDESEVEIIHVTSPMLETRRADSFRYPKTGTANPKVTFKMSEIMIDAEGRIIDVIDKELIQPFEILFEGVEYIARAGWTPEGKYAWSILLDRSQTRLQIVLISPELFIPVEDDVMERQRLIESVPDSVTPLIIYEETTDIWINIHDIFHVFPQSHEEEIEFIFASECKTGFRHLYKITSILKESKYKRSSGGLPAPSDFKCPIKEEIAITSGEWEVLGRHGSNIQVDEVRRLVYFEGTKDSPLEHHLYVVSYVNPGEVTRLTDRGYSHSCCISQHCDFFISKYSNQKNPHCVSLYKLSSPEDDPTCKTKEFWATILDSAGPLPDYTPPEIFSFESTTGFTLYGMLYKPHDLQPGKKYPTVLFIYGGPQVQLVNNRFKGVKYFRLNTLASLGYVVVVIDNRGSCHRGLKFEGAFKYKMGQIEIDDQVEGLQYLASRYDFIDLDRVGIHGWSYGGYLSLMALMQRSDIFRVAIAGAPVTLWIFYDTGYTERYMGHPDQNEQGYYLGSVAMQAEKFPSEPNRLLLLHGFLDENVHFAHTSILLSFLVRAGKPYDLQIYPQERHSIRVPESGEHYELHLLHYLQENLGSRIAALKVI
The next data set concerns the target Cytochrome P450 2C19 (Homo sapiens, UniProt P33261). Kind of data set: inhibition of CYP2C19. The class given is ADME.
Data set [1] addresses Voltage-gated inwardly rectifying potassium channel KCNH2 (Homo sapiens, UniProt Q12809). Put plainly: Inhibition of human ERG.
The target of another data set is Cytochrome P450 3A4 (Homo sapiens, UniProt P08684). Put plainly: inhibition of CYP3A4. The class given is ADME.
Chain of Cytochrome P450 3A4 (P08684 whole entry): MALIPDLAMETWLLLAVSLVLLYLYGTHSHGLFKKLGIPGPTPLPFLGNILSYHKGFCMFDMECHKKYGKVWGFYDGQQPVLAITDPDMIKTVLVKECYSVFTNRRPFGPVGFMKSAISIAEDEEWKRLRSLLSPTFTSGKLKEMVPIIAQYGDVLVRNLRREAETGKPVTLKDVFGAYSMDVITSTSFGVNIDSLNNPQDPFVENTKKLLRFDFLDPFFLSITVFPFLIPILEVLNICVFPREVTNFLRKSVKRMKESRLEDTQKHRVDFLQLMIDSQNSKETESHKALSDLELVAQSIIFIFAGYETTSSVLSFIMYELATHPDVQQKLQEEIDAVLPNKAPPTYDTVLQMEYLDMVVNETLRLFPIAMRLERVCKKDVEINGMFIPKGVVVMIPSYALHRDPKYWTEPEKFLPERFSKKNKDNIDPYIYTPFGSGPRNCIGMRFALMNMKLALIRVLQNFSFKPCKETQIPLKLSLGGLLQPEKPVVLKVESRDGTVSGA
The next data set has as its target T1, Cytochrome P450 1A2 (Homo sapiens, UniProt P05177).
T1 sequence (P05177 whole entry): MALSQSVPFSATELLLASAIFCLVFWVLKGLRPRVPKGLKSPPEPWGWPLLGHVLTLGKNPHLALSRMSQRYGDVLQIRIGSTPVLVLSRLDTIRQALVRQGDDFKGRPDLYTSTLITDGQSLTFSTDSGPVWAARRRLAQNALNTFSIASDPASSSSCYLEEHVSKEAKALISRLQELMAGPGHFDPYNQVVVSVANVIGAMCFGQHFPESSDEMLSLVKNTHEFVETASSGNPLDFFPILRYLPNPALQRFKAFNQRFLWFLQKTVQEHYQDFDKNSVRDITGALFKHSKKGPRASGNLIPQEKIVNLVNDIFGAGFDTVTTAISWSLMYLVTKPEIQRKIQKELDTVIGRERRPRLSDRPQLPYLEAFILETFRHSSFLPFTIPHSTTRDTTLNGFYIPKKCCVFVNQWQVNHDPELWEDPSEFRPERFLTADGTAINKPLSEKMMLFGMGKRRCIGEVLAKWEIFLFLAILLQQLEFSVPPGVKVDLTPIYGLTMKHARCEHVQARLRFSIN
Kind of data set: inhibition of CYP1A2. The class given is ADME.

The target in another data set is Cytochrome P450 2C9 (Homo sapiens, UniProt P11712). Kind of data set: inhibition of CYP2C9. The class given is ADME.
Chain of Cytochrome P450 2C9 (P11712 whole entry): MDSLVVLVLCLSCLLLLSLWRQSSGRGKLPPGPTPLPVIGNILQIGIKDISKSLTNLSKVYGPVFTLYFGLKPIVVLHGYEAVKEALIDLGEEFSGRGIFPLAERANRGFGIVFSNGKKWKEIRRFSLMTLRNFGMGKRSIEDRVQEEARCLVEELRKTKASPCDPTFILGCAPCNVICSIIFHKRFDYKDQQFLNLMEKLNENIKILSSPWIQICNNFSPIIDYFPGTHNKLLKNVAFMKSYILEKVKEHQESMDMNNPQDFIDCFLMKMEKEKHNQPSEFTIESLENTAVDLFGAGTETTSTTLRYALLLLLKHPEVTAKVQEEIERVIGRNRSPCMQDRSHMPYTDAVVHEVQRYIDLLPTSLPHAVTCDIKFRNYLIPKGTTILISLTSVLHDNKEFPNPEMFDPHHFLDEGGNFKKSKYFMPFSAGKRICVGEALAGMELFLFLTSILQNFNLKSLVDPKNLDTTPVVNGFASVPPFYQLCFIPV
Data set [2] deals with Mus musculus. Kind of data set: Antidiabetic activity in ob/ob mouse assessed as increase in mean insulin level at 3 umol/kg, po measured after 15 mins of glucose challenge by oral glucose tolerance test. The class given is functional.
Data set [3] relates to Mus musculus. Put plainly: Antidiabetic activity in ob/ob mouse assessed as increase in mean insulin level at 10 umol/kg, po measured after 15 mins of glucose challenge by oral glucose tolerance test. The data set is classed as functional.

Chain of Voltage-gated inwardly rectifying potassium channel KCNH2 (Q12809 whole entry): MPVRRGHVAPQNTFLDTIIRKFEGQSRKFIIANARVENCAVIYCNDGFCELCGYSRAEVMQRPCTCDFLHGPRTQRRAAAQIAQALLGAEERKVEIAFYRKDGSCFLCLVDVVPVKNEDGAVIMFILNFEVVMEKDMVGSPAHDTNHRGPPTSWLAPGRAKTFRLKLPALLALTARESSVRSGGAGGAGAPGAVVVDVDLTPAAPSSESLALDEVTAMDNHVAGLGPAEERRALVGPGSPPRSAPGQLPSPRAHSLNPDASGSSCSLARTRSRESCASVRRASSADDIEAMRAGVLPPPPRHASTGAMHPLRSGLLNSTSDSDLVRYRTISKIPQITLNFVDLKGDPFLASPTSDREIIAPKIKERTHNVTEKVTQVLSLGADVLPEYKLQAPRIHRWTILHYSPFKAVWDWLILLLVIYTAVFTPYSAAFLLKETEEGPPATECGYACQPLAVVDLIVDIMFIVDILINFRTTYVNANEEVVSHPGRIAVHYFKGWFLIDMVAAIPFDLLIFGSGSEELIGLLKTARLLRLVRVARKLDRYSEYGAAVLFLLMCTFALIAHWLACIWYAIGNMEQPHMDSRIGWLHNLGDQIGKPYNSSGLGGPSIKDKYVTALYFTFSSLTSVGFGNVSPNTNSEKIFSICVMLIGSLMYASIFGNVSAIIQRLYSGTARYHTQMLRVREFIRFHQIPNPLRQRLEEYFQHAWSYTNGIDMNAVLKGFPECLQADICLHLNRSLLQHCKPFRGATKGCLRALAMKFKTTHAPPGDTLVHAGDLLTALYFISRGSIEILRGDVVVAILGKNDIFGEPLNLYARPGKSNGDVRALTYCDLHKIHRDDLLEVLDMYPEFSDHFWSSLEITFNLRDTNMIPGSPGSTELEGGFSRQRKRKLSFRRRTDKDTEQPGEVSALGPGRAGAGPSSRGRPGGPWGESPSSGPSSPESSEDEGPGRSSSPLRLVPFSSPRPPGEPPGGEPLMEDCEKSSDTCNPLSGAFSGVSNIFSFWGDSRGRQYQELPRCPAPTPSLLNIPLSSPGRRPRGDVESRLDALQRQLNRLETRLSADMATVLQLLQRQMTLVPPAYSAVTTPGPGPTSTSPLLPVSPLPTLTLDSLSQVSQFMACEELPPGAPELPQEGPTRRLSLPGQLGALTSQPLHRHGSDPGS
Chain of Dipeptidyl peptidase 9 (Q86TI2 whole entry): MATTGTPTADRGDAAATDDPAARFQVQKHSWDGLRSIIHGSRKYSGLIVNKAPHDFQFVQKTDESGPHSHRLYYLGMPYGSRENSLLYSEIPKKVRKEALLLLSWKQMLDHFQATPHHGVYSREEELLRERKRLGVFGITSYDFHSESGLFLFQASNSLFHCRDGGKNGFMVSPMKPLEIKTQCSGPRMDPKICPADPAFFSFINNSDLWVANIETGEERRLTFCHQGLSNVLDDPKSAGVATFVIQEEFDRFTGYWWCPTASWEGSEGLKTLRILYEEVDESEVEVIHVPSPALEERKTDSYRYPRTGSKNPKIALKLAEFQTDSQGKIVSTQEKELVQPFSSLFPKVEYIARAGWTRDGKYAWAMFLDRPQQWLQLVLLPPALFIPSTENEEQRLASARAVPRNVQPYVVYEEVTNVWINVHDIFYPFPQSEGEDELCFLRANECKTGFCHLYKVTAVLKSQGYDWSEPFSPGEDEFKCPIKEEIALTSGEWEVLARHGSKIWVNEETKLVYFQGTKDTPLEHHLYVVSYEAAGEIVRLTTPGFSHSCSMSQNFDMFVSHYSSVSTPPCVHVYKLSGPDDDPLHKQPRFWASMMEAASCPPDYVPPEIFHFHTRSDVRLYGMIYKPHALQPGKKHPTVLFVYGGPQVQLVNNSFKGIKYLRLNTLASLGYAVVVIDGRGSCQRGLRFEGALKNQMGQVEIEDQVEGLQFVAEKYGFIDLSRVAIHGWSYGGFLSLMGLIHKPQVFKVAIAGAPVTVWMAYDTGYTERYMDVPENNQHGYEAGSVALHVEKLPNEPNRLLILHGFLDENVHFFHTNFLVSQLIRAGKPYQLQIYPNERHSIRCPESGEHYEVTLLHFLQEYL
Chain of Cytochrome P450 2C19 (P33261 whole entry): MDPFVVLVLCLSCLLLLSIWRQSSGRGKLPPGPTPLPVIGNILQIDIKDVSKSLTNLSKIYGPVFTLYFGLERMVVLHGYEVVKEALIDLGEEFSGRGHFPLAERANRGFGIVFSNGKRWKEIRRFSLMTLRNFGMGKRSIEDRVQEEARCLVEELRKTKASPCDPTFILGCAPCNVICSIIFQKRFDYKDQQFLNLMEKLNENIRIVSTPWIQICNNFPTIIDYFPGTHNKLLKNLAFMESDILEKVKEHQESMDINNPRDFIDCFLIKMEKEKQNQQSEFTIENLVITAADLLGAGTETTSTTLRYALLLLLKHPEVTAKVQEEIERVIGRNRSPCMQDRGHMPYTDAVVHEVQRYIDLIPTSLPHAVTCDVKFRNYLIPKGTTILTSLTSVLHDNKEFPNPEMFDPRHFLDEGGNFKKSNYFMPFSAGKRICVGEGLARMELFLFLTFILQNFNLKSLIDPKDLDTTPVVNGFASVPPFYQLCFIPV

The Ki is the dissociation constant of the complex between target and ligand, obtained from inhibition or displacement. The low end stands for tighter binding, the high end for weaker binding. Consider `COc1ccccc1-c1cn2c(-c3ccc(Cl)cc3Cl)c(CN)c(C)nc2n1`, for which, at Dipeptidyl peptidase 9, the inhibitory constant (Ki) was more than 10 µM.
For `Cc1cc2nc(C)c(CN)c(-c3ccc(Cl)cc3Cl)n2n1`, the Ki on Dipeptidyl peptidase 8 and on Dipeptidyl peptidase 9 was more than 30 µM throughout.
With `Cc1nc2c(-c3ccccc3)cnn2c(-c2ccc(Cl)cc2Cl)c1CN`, the Ki at Dipeptidyl peptidase 8 and on Dipeptidyl peptidase 9 was more than 30 µM throughout.
What is called IC50 is the concentration at which inhibition is half-maximal. As for `Cc1nc2cc(-c3ccccc3)nn2c(-c2ccc(Cl)cc2Cl)c1CN`, the IC50 against Cytochrome P450 2C19 amounted to 3 µM; at Cytochrome P450 3A4, 1 µM; at Cytochrome P450 1A2 it was 6 µM; on Cytochrome P450 2C9, 12 µM. Besides, the Ki at Dipeptidyl peptidase 8 is more than 30 µM; at Dipeptidyl peptidase 9, more than 20 µM. Also, the “inhibition (INH)” value in data set [1] is on record as 95%.
In the case of `CCC(=O)c1cnn2c(-c3ccc(Cl)cc3Cl)c(CN)c(C)nc12`, the Ki on Dipeptidyl peptidase 8 and on Dipeptidyl peptidase 9 was more than 30 µM each time.
Turning to `Cc1nc2cc(-c3ccco3)nn2c(-c2ccc(Cl)cc2Cl)c1CN`, the Ki at Dipeptidyl peptidase 8 and on Dipeptidyl peptidase 9 was more than 30 µM throughout.
Turning to `Cc1nc2cc(-c3ccc(Cl)cc3)nn2c(-c2ccc(Cl)cc2Cl)c1CN`, at Dipeptidyl peptidase 9, the Ki was more than 30 µM.
Regarding `Cc1ccc(-c2cc3nc(C)c(CN)c(-c4ccc(Cl)cc4Cl)n3n2)cc1`, the figures for the Ki on Dipeptidyl peptidase 8 and at Dipeptidyl peptidase 9 were more than 30 µM and more than 10 µM, respectively.
For `Cc1nc2nc(C)c(CN)c(-c3ccc(Cl)cc3Cl)n2n1`, the Ki on Dipeptidyl peptidase 8 and on Dipeptidyl peptidase 9 was more than 30 µM in each case.
With `Cc1nc2nc(-c3ccccc3)nn2c(-c2ccc(Cl)cc2Cl)c1CN`, the Ki at Dipeptidyl peptidase 8 and on Dipeptidyl peptidase 9 was more than 30 µM each time. In [1], the “inhibition (INH)” value is reported as 85%.
With `COC(=O)c1nc2nc(C)c(CN)c(-c3ccc(Cl)cc3Cl)n2n1`, the Ki at Dipeptidyl peptidase 8 and at Dipeptidyl peptidase 9 was more than 30 µM in each case.
`Cc1nc2nc(C(=O)Nc3ccccc3)nn2c(-c2ccc(Cl)cc2Cl)c1CN` showed a Ki on Dipeptidyl peptidase 9 of more than 10 µM.
Take `CCN(CC)c1nc2nc(C)c(CN)c(-c3ccc(Cl)cc3Cl)n2n1`: the inhibitory constant (Ki) at Dipeptidyl peptidase 8 and at Dipeptidyl peptidase 9 was more than 30 µM throughout.
As for `CCN(C)c1nc2nc(C)c(CN)c(-c3ccc(Cl)cc3Cl)n2n1`, the Ki at Dipeptidyl peptidase 8 and at Dipeptidyl peptidase 9 was more than 30 µM in each case.
With `COCCN(C)c1nc2nc(C)c(CN)c(-c3ccc(Cl)cc3Cl)n2n1`, the Ki on Dipeptidyl peptidase 9 was more than 30 µM.
For the compound `Cc1nc2nc(N3CCCC3)nn2c(-c2ccc(Cl)cc2Cl)c1CN`, the results for the inhibition constant (Ki) on Dipeptidyl peptidase 8 and at Dipeptidyl peptidase 9 were more than 10 µM and more than 30 µM, respectively.
At Dipeptidyl peptidase 9, `Cc1nc2nc(N3CCOCC3)nn2c(-c2ccc(Cl)cc2Cl)c1CN` came in with a Ki of more than 30 µM.
Regarding `Cc1nc2nc(N3CCSCC3)nn2c(-c2ccc(Cl)cc2Cl)c1CN`, the inhibitory constant (Ki) at Dipeptidyl peptidase 8 and on Dipeptidyl peptidase 9 was more than 30 µM throughout.
As for `Cc1nc2nc(N3CCN(C(=O)OC(C)(C)C)CC3)nn2c(-c2ccc(Cl)cc2Cl)c1CN`, the Ki at Dipeptidyl peptidase 8 and at Dipeptidyl peptidase 9 was more than 30 µM in each case.
For the compound `Cc1nc2nc(N3CCNCC3)nn2c(-c2ccc(Cl)cc2Cl)c1CN`, the Ki on Dipeptidyl peptidase 8 and at Dipeptidyl peptidase 9 was more than 30 µM each time.
For `Cc1nc2nccn2c(-c2ccc(Cl)cc2Cl)c1CN`, the Ki at Dipeptidyl peptidase 8 and on Dipeptidyl peptidase 9 was more than 30 µM in each case.
Regarding `Cc1nc2nc(-c3ccccc3)cn2c(-c2ccc(Cl)cc2Cl)c1CN`, the values for the Activity in the data set with Mus musculus [2] and in the data set on Mus musculus [3] were 51% and 74%, respectively. Further, the IC50 is 13 µM against Cytochrome P450 2C19, 1 µM against Cytochrome P450 3A4, 19 µM on Cytochrome P450 1A2 (read-out: IC50) and more than 40 µM on Cytochrome P450 2C9. The Ki at Dipeptidyl peptidase 8 and on Dipeptidyl peptidase 9 was more than 30 µM in each case. The “inhibition (INH)” value in data set [1] was 74%.
